This is an account of results in US20250382261A1 (The Broad Institute, Inc., priority 2021, published 2025).

As a reminder, the IC50 is the concentration that inhibits the measured activity by half. For orientation: AUC(0-inf) means total exposure, with the tail of the curve extrapolated. Higher therefore signals more exposure. The AUC(0-t) is the area under the concentration-time curve up to a stated or last time point. The low end stands for low exposure, the high end for high exposure. By MRT inf is commonly meant the average time that molecules of a dose stay in the body. For orientation: MRT last means a mean duration of stay, worked out from the concentration-time curve. One may read the Vd as the apparent volume that relates the amount in the body to the concentration in plasma or blood. A word on the clearance: it is the volume of plasma or blood freed of the substance per unit of time.

Data set [1] deals with A. baumannii (ATCC 17978). Put plainly: Checkerboard potentiation assay with novobiocin. It counts as cell-based. Here is the method:
Bacterial strains and culture conditions. The following bacterial strains were used within this study; A. baumannii (ATCC 17978), K. pneumoniae (ATCC 43816), K. pneumoniae (ATCC 43816, expressing pGDP2:mcr-1), P. aeruginosa (PA01). Bacterial growth was in cation-adjusted Mueller-Hinton broth (MHB) at 37° C., and inoculum was prepared according to CLSI protocol (CLSI 2015).
Potentiation assays. Checkerboard analyses were conducted with each drug serially diluted at eight concentrations to create an 8×8 matrix. At least two biological replicates were done for each combination, and the means were used for FIC calculation. The FIC for each drug was calculated by dividing the concentration of the drug in the presence of codrug in a combination for a well showing <10% growth by the MIC for that drug alone. The FIC index (FICI) is the sum of the two FICs, with an FIC index≤0.5 deemed synergistic.

Data set [2] deals with A. baumannii ATCC 17978. Put plainly: Systemic A. baumannii murine infection model. The format is in vivo, mouse. Here is the method: Mouse infection models. Animal experiments were conducted according to guidelines set by the Canadian Council on Animal Care using protocols approved by the Animal Review Ethics Board at McMaster University under Animal Use Protocol #20-12-43. Before infection, mice were relocated at random from a housing cage to treatment or control cages. No animals were excluded from analyses, and blinding was considered unnecessary. Seven- to nine-week-old female C57BL/6 mice (Charles River) were infected intraperitoneally with ˜2×10^6 CFU of A. baumannii ATCC 17978, with 5% porcine mucin (Sigma-Aldrich). Infections were allowed to establish for 2 h, and treatments were administered intraperitoneally. For the survival study, the clinical endpoint was determined using a five-point body condition score analyzing weight loss, decrease in body temperature, respiratory distress, hampered mobility and hunched posture. Experimental endpoint was defined as five days post-infection for mice not reaching clinical endpoint. For CFU/mL enumeration, animals were infected as described above and euthanized 6 h post-infection, and blood was collected into sterile 2 ml heparinized tubes (BD Scientific) serially diluted in PBS and plated onto solid LB. Plates were incubated overnight at 37° C., and colonies were quantified to determine bacterial load.
This was directly compared to the activity of P35 and P36 in this model (all administered at 10 mg/kg) in combination with novobiocin (50 mg/kg).
For this experiment the same A. baumannii infection model was used, however, endpoint was defined as 6 h post-infection, at which point blood was collected for CFU/mL enumeration (FIG. 2b).

Data set [3] is described as follows: In vitro metabolic stability, mouse. The format is in vitro ADME. Conditions: read-out: In vitro metabolic stability (t1/2, min), mouse.
Data set [4] can be described thus: In vitro metabolic stability, dog. The format is in vitro ADME. Particulars: read-out: In vitro metabolic stability (t1/2, min), dog.
Data set [5] in a line: In vitro metabolic stability, human. Particulars: read-out: In vitro metabolic stability (t1/2, min), human. The format is in vitro ADME.
Data set [6] concerns the target T1, CYP1A2 (Homo sapiens, UniProt P05177).
T1 construct: Cyprotex Ltd. (contract laboratory that ran the assay)
T1 sequence (P05177 1-516): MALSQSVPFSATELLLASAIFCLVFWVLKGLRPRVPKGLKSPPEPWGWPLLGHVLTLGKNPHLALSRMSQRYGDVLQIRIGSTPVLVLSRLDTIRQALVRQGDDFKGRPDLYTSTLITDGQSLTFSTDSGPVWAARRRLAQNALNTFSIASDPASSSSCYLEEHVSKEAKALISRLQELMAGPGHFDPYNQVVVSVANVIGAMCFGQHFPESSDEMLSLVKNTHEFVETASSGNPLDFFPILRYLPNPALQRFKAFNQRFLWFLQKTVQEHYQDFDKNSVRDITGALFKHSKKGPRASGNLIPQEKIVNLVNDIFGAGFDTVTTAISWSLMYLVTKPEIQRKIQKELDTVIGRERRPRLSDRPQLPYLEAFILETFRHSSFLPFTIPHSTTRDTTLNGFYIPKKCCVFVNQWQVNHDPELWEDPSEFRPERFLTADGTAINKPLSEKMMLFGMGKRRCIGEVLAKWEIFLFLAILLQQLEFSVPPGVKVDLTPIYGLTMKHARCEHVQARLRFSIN
Description: P450 inhibition. It counts as in vitro ADME. Particulars: read-out: P450 Inhibition CYP 1A2 (IC50). Here is the method:
(§1) P450 inhibition. An 8-point dose-response of P35 (0, 0.1, 0.25, 1, 2.5, 10, 25 μM) was tested against the following cytochrome P450 (CYP) isoforms CYP3A4, CYP2C9, CYP2D6, CYP1A2, and CYP2C19. Reduction in metabolite formation was quantified using LC-MS/MS (with the exception of ethoxyresorufin for CYP1A2) to calculate an IC50 value. This assay was performed by Cyprotex Ltd.

For data set [7], the target named is T2, CYP2C19 (Homo sapiens, UniProt P33261).
T2 construct: Cyprotex Ltd. (contract laboratory that ran the assay)
Put plainly: P450 inhibition. It counts as in vitro ADME. Conditions: read-out: P450 Inhibition CYP 2C19 (IC50). How it is done:
as §1

The target of data set [8] is T3, CYP2C9 (Homo sapiens, UniProt P11712).
T3 construct: Cyprotex Ltd. (contract laboratory that ran the assay)
Put plainly: P450 inhibition. It counts as in vitro ADME. Conditions: read-out: P450 Inhibition CYP 2C9 (IC50). Here is the method: as §1

Data set [9] concerns the target T4, CYP3A4 (Homo sapiens, UniProt P08684).
T4 construct: Cyprotex Ltd. (contract laboratory that ran the assay)
Description: P450 inhibition. The format is in vitro ADME. Particulars: read-out: P450 Inhibition CYP 3A4 (IC50). How it is done: as §1

The conditions of data set [10]: in vivo, 1 mg/kg.
Description: (§2) Plasma samples were taken from 3 mice per time point (5, 15, 30 min; 1, 2, 4, 6 and 8 h post-dose). An aliquot of 2 μL sample was protein precipitated with 60 μL methanol, the mixture was vortex-mixed well and centrifuged at 13000 rpm for 10 min at 4° C. 2 μL supernatant was injected for LC-MS/MS analysis. The mean plasma concentration and the standard deviation from all 3 animals within each time point were calculated. PK parameters were calculated with a non-compartmental analysis. The mean plasma concentrations from all 3 mice at each time point were used in the calculations.
Data set [11] can be described thus: in vivo. Particulars: female, C57BL/6, mouse, in vivo, iv, 1 mg/kg.
Description: as §2

T4 sequence (P08684 whole entry): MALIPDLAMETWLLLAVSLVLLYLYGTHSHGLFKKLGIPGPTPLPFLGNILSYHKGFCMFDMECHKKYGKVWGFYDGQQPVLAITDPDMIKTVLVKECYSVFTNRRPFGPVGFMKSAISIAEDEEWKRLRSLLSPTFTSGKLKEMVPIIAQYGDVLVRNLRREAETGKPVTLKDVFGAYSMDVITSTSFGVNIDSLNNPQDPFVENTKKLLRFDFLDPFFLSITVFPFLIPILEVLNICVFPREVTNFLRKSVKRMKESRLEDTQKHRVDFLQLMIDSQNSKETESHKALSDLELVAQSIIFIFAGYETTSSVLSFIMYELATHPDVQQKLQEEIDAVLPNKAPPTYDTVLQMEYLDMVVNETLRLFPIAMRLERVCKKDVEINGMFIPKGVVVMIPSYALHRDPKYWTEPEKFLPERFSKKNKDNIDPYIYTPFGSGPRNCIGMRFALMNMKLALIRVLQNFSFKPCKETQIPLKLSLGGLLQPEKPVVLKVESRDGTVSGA
T2 sequence (P33261 whole entry): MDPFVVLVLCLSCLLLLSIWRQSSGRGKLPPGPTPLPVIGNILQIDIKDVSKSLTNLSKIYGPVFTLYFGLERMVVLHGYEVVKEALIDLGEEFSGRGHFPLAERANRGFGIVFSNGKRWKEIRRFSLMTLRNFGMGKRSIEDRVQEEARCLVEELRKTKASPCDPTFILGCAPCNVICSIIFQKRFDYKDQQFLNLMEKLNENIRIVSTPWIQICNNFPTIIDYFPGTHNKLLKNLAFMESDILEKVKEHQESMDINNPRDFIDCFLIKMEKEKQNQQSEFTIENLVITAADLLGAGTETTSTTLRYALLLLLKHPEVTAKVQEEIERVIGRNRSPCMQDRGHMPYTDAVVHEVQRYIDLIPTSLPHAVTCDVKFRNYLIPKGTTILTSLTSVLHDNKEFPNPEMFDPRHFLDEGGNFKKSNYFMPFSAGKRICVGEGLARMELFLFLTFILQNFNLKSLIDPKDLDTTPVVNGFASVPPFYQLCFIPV
T3 sequence (P11712 whole entry): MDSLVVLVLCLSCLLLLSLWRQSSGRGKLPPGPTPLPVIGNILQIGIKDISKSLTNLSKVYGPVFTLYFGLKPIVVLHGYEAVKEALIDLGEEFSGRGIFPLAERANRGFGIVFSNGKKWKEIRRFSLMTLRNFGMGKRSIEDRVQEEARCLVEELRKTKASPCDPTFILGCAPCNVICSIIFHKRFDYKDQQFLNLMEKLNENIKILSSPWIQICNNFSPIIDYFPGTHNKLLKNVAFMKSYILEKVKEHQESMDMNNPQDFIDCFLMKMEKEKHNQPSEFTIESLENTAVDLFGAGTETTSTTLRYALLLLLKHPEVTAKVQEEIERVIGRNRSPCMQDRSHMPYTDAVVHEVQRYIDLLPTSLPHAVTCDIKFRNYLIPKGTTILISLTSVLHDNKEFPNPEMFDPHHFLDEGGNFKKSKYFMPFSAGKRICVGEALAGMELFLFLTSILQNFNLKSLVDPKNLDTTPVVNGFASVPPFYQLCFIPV

Consider `N=C(N)c1ccc(OCCN(CCOc2ccc(C(=N)N)cc2)c2ccccc2)cc1` [Analog P35], for which the “FICI with novobiocin in presence of 20 mM Mg2+” value in data set [1] (20 mM Mg2+ added to growth media) is 0.56. For the same molecule, in [1] (with novobiocin), the “FICI AB” value was 0.094. The “Reduction in blood CFU/mL in combination with novobiocin” value in data set [2] (10 mg/kg + 50 mg/kg novobiocin, 6 h post-infection) stood at 3.05 log10. Also, in [2] (10 mg/kg analog + 50 mg/kg novobiocin i.p. 2 h post-infection, endpoint 5 days), the “Animals rescued in combination with novobiocin” value was determined as 100%. The “Impact on blood CFU/mL, treatment alone” value in data set [2] (alone, 6 h post-infection, compared to control-treated animals) was “no significant impact”. The half-life in [3] worked out at 91.6 min. Also, the half-life in data set [4] turned out to be 137 min. Further, the half-life in [5] is over 145 min. Besides, in data set [6], the IC50 was over 50 µM. The IC50 in data set [7] is over 50 µM. In [8], the IC50 was over 50 µM. Moreover, the IC50 in data set [9] was over 50 µM. Moreover, in data set [10] (female, C57BL/6, mouse, iv), the “AUCExtra (%)” value amounted to 6.74%, the “AUMCExtra (%)” value is given as 37.7% and the “Tlast” value stood at 8.00 h. The “Adverse effects after single intravenous dose” value in data set [10] (mouse) is given as “no adverse effects”. Moreover, in data set [11], the AUC(0-inf) was found to be 55.3 ng·h/mL, the AUC(0-t) came out at 51.6 ng·h/mL, the C0 came out at 238 ng/mL and the MRT inf stood at 1.85 h. Also, in data set [11], the MRT last was 1.24 h, the Vd stood at 33.4 L/kg, the clearance came out at 301 mL/min/kg and the half-life was 96.6 min.
